Tests used:
Settings in all cases: 72 h
Caco-2 [1] = assay: relative viability EC50 (midpoint between 100% and the lowest measured viability); higher = less toxic
HepG2 [2] = assay: as above
Vero E6 [3] = assay: as above
U2OS [4] = assay: as above
Calu-3 [5] = assay: as above
Caco-2 [6] = assay: drug sensitivity score (DSS) for viability; higher = more toxic; extreme values may be limits of the assay
HepG2 [7] = assay: as above
Vero E6 [8] = assay: as above
U2OS [9] = assay: as above
Calu-3 [10] = assay: as above
Caco-2 [11] = assay: cell viability relative to DMSO; higher = less toxic
HepG2 [12] = assay: as above
Vero E6 [13] = assay: as above
U2OS [14] = assay: as above
Calu-3 [15] = assay: as above

What does the source list for `CC[C@]12C=CCN3CC[C@@]4(c5cc([C@@]6(C(=O)OC)C[C@@H]7C[C@@H](C(C)(F)F)CN(Cc8c6[nH]c6ccccc86)C7)c(OC)cc5N(C)[C@H]4[C@@](O)(C(=O)OC)[C@@H]1OC(C)=O)[C@@H]32` [Vinflunine Ditartrate]?
relative viability EC50 (Caco-2 [1]): 0.213 µM; relative viability EC50 (HepG2 [2]): 0.0789 µM; relative viability EC50 (Vero E6 [3]): 1.04 µM; relative viability EC50 (U2OS [4]): 0.493 µM; relative viability EC50 (Calu-3 [5]): 0.655 µM; drug sensitivity score (Caco-2 [6]): 10.9; drug sensitivity score (HepG2 [7]): 17; drug sensitivity score (Vero E6 [8]): 8.8; drug sensitivity score (U2OS [9]): 11.3; drug sensitivity score (Calu-3 [10]): 6.8; cell viability (Caco-2 [11]; 1 nM): 88.1%; cell viability (Caco-2 [11]; 10 nM): 104%; cell viability (Caco-2 [11]; 100 nM): 77.4%; cell viability (Caco-2 [11]; 1000 nM): 55.2%; cell viability (Caco-2 [11]; 10000 nM): 41.2%; cell viability (HepG2 [12]; 1 nM): 107%; cell viability (HepG2 [12]; 10 nM): 95.1%; cell viability (HepG2 [12]; 100 nM): 61.2%; cell viability (HepG2 [12]; 1000 nM): 32.8%; cell viability (HepG2 [12]; 10000 nM): 34.3%; cell viability (Vero E6 [13]; 1 nM): 102%; cell viability (Vero E6 [13]; 10 nM): 99.5%; cell viability (Vero E6 [13]; 100 nM): 103%; cell viability (Vero E6 [13]; 1000 nM): 64.1%; cell viability (Vero E6 [13]; 10000 nM): 24.3%; cell viability (U2OS [14]; 1 nM): 101%; cell viability (U2OS [14]; 10 nM): 98.1%; cell viability (U2OS [14]; 100 nM): 87.5%; cell viability (U2OS [14]; 1000 nM): 48.6%; cell viability (U2OS [14]; 10000 nM): 23.1%; cell viability (Calu-3 [15]; 1 nM): 108%; cell viability (Calu-3 [15]; 10 nM): 101%; cell viability (Calu-3 [15]; 100 nM): 90.2%; cell viability (Calu-3 [15]; 1000 nM): 69.3%; cell viability (Calu-3 [15]; 10000 nM): 45.9%

Which “relative viability EC50” value (Caco-2 [1]) does the source give for `COc1ccc(N(C(=O)Oc2c(C)cccc2C)c2ccnc(Nc3ccc(N4CCN(C)CC4)cc3)n2)c(OC)c1` [WH-4-023] here?
The value was > 10 µM.

And the “relative viability EC50” value (HepG2 [2])?
The value was > 10 µM.

What about the “relative viability EC50” value (Vero E6 [3]) of the same compound?
Its value is > 10 µM.

What about the “relative viability EC50” value (U2OS [4]) of the same compound?
Its value is > 10 µM.

And the “relative viability EC50” value (Calu-3 [5])?
Its value is > 10 µM.

What about the drug sensitivity score (Caco-2 [6]) of the same compound?
Its drug sensitivity score is 0.

And the drug sensitivity score (HepG2 [7])?
The drug sensitivity score was 0.

And the drug sensitivity score (Vero E6 [8])?
Its drug sensitivity score is 0.2.

What about the drug sensitivity score (U2OS [9]) of the same compound?
Its drug sensitivity score is 0.

And the drug sensitivity score (Calu-3 [10])?
Its drug sensitivity score is 0.

What about the cell viability (Caco-2 [11]; 1 nM) of the same compound?
Its cell viability is 101%.

What about the cell viability (Caco-2 [11]; 10 nM) of the same compound?
Its cell viability is 89.4%.

And the cell viability (Caco-2 [11]; 100 nM)?
The cell viability was 102%.

And the cell viability (Caco-2 [11]; 1000 nM)?
The cell viability was 114%.

What about the cell viability (Caco-2 [11]; 10000 nM) of the same compound?
The cell viability was 103%.

What about the cell viability (HepG2 [12]; 1 nM) of the same compound?
The cell viability was 92.7%.

And the cell viability (HepG2 [12]; 10 nM)?
Its cell viability is 91.9%.

What about the cell viability (HepG2 [12]; 100 nM) of the same compound?
The cell viability was 93.2%.

And the cell viability (HepG2 [12]; 1000 nM)?
Its cell viability is 100%.

And the cell viability (HepG2 [12]; 10000 nM)?
The cell viability was 101%.

And the cell viability (Vero E6 [13]; 1 nM)?
The cell viability was 95.4%.

What about the cell viability (Vero E6 [13]; 10 nM) of the same compound?
Its cell viability is 97.4%.

What about the cell viability (Vero E6 [13]; 100 nM) of the same compound?
The cell viability was 96.7%.

What about the cell viability (Vero E6 [13]; 1000 nM) of the same compound?
Its cell viability is 93.7%.

And the cell viability (Vero E6 [13]; 10000 nM)?
Its cell viability is 84.8%.

What about the cell viability (U2OS [14]; 1 nM) of the same compound?
Its cell viability is 101%.

What about the cell viability (U2OS [14]; 10 nM) of the same compound?
The cell viability was 96.8%.

What about the cell viability (U2OS [14]; 100 nM) of the same compound?
Its cell viability is 98.1%.

What about the cell viability (U2OS [14]; 1000 nM) of the same compound?
Its cell viability is 107%.

What about the cell viability (U2OS [14]; 10000 nM) of the same compound?
The cell viability was 99.8%.

What about the cell viability (Calu-3 [15]; 1 nM) of the same compound?
The cell viability was 93.3%.

What about the cell viability (Calu-3 [15]; 10 nM) of the same compound?
Its cell viability is 104%.

What about the cell viability (Calu-3 [15]; 100 nM) of the same compound?
Its cell viability is 95.8%.

And the cell viability (Calu-3 [15]; 1000 nM)?
The cell viability was 104%.

What about the cell viability (Calu-3 [15]; 10000 nM) of the same compound?
Its cell viability is 89.8%.

Which “relative viability EC50” value (Caco-2 [1]) does the source give for `CCOc1ccc(S(=O)(=O)O)c2cccnc12` [actinoquinol] here?
Its value is > 10 µM.

What about the “relative viability EC50” value (HepG2 [2]) of the same compound?
The value was > 10 µM.

What about the “relative viability EC50” value (Vero E6 [3]) of the same compound?
The value was > 10 µM.

And the “relative viability EC50” value (U2OS [4])?
Its value is > 10 µM.

What about the “relative viability EC50” value (Calu-3 [5]) of the same compound?
The value was > 10 µM.

What about the drug sensitivity score (Caco-2 [6]) of the same compound?
The drug sensitivity score was 0.

And the drug sensitivity score (HepG2 [7])?
The drug sensitivity score was 0.

And the drug sensitivity score (Vero E6 [8])?
The drug sensitivity score was 0.

What about the drug sensitivity score (U2OS [9]) of the same compound?
Its drug sensitivity score is 0.

What about the drug sensitivity score (Calu-3 [10]) of the same compound?
Its drug sensitivity score is 0.

What about the cell viability (Caco-2 [11]; 1 nM) of the same compound?
Its cell viability is 91.1%.

What about the cell viability (Caco-2 [11]; 10 nM) of the same compound?
Its cell viability is 78%.

What about the cell viability (Caco-2 [11]; 100 nM) of the same compound?
The cell viability was 87.3%.

And the cell viability (Caco-2 [11]; 1000 nM)?
The cell viability was 102%.

What about the cell viability (Caco-2 [11]; 10000 nM) of the same compound?
Its cell viability is 95.1%.

And the cell viability (HepG2 [12]; 1 nM)?
The cell viability was 91%.

What about the cell viability (HepG2 [12]; 10 nM) of the same compound?
The cell viability was 101%.

What about the cell viability (HepG2 [12]; 100 nM) of the same compound?
Its cell viability is 95.1%.

And the cell viability (HepG2 [12]; 1000 nM)?
Its cell viability is 98.5%.

And the cell viability (HepG2 [12]; 10000 nM)?
Its cell viability is 110%.

And the cell viability (Vero E6 [13]; 1 nM)?
Its cell viability is 95.4%.

And the cell viability (Vero E6 [13]; 10 nM)?
The cell viability was 90.2%.

What about the cell viability (Vero E6 [13]; 100 nM) of the same compound?
Its cell viability is 92.5%.

And the cell viability (Vero E6 [13]; 1000 nM)?
The cell viability was 95.1%.

What about the cell viability (Vero E6 [13]; 10000 nM) of the same compound?
Its cell viability is 101%.

What about the cell viability (U2OS [14]; 1 nM) of the same compound?
The cell viability was 96.3%.

What about the cell viability (U2OS [14]; 10 nM) of the same compound?
Its cell viability is 98.1%.

And the cell viability (U2OS [14]; 100 nM)?
The cell viability was 94%.

And the cell viability (U2OS [14]; 1000 nM)?
The cell viability was 94.6%.

What about the cell viability (U2OS [14]; 10000 nM) of the same compound?
The cell viability was 95.5%.

What about the cell viability (Calu-3 [15]; 1 nM) of the same compound?
The cell viability was 99.4%.

And the cell viability (Calu-3 [15]; 10 nM)?
The cell viability was 99.4%.

What about the cell viability (Calu-3 [15]; 100 nM) of the same compound?
The cell viability was 99%.

What about the cell viability (Calu-3 [15]; 1000 nM) of the same compound?
Its cell viability is 99.8%.

And the cell viability (Calu-3 [15]; 10000 nM)?
The cell viability was 99.1%.

Which “relative viability EC50” value (Caco-2 [1]) does the source give for `NCCCC(O)(P(=O)(O)O)P(=O)(O)O` [alendronate] here?
Its value is > 10 µM.

And the “relative viability EC50” value (HepG2 [2])?
Its value is > 10 µM.

And the “relative viability EC50” value (Vero E6 [3])?
Its value is > 10 µM.

What about the “relative viability EC50” value (U2OS [4]) of the same compound?
Its value is > 10 µM.

And the “relative viability EC50” value (Calu-3 [5])?
The value was > 10 µM.

What about the drug sensitivity score (Caco-2 [6]) of the same compound?
The drug sensitivity score was 0.

And the drug sensitivity score (HepG2 [7])?
Its drug sensitivity score is 0.1.

And the drug sensitivity score (Vero E6 [8])?
Its drug sensitivity score is 0.

And the drug sensitivity score (U2OS [9])?
The drug sensitivity score was 0.

What about the drug sensitivity score (Calu-3 [10]) of the same compound?
Its drug sensitivity score is 0.

What about the cell viability (Caco-2 [11]; 1 nM) of the same compound?
The cell viability was 97.4%.

What about the cell viability (Caco-2 [11]; 10 nM) of the same compound?
The cell viability was 102%.

What about the cell viability (Caco-2 [11]; 100 nM) of the same compound?
The cell viability was 96.9%.

What about the cell viability (Caco-2 [11]; 1000 nM) of the same compound?
Its cell viability is 99.8%.

What about the cell viability (Caco-2 [11]; 10000 nM) of the same compound?
The cell viability was 94.3%.

And the cell viability (HepG2 [12]; 1 nM)?
Its cell viability is 101%.

And the cell viability (HepG2 [12]; 10 nM)?
Its cell viability is 91.7%.

And the cell viability (HepG2 [12]; 100 nM)?
Its cell viability is 107%.

What about the cell viability (HepG2 [12]; 1000 nM) of the same compound?
Its cell viability is 95.4%.

What about the cell viability (HepG2 [12]; 10000 nM) of the same compound?
Its cell viability is 88.8%.

And the cell viability (Vero E6 [13]; 1 nM)?
The cell viability was 102%.

What about the cell viability (Vero E6 [13]; 10 nM) of the same compound?
Its cell viability is 98.5%.

What about the cell viability (Vero E6 [13]; 100 nM) of the same compound?
The cell viability was 106%.

And the cell viability (Vero E6 [13]; 1000 nM)?
The cell viability was 103%.

What about the cell viability (Vero E6 [13]; 10000 nM) of the same compound?
Its cell viability is 106%.

What about the cell viability (U2OS [14]; 1 nM) of the same compound?
The cell viability was 96.6%.

And the cell viability (U2OS [14]; 10 nM)?
Its cell viability is 103%.

And the cell viability (U2OS [14]; 100 nM)?
Its cell viability is 94.8%.

And the cell viability (U2OS [14]; 1000 nM)?
The cell viability was 104%.

What about the cell viability (U2OS [14]; 10000 nM) of the same compound?
Its cell viability is 97.7%.

And the cell viability (Calu-3 [15]; 1 nM)?
Its cell viability is 85.5%.

And the cell viability (Calu-3 [15]; 10 nM)?
Its cell viability is 103%.

What about the cell viability (Calu-3 [15]; 100 nM) of the same compound?
The cell viability was 92.3%.

And the cell viability (Calu-3 [15]; 1000 nM)?
The cell viability was 107%.

What about the cell viability (Calu-3 [15]; 10000 nM) of the same compound?
The cell viability was 98.5%.
